How the values were obtained:
Cyperus iria = assay: Preemergence weed control under flooded paddy conditions, CYPIR (Rice Flatsedge); assay type: in vivo; settings: preemergence, flooded paddy
[1] = tested on: Monochoria vaginalis, Presl.; assay: Preemergence weed control under flooded paddy conditions, MOOVA (Monochoria); assay type: in vivo; settings: preemergence, flooded paddy
[2] = tested on: Oryza sativa, (L.) Tebonnet; assay: Rice tolerance to post-transplant applications under flooded paddy conditions (Example 187), ORYSAT (Rice, Tebonnet)
Sagittaria pygmaea, L. = assay: Preemergence weed control under flooded paddy conditions, SAGPY (Arrowhead (Pygmaea)); assay type: in vivo; settings: preemergence, flooded paddy
[3] = tested on: Cyperus serotinus, Rottb.; assay: Preemergence weed control under flooded paddy conditions, CYPSE (Flatsedge); assay type: in vivo; settings: preemergence
[4] = tested on: Echinochloa oryzoides (Ard.) Fritsch.; assay: Preemergence weed control under flooded paddy conditions, ECHORC (Watergrass (Calif.)); assay type: in vivo; settings: preemergence, flooded paddy
[5] = Rate 0.0320 kg/ha, rated three to four weeks after treatment
[6] = Rate 0.0620 kg/ha, rated three to four weeks after treatment
[7] = Rate 0.1250 kg/ha, rated three to four weeks after treatment
[8] = Rate 0.2500 kg/ha, rated three to four weeks after treatment
[9] = Rate 0.0320 kg/ha, rated 3-4 weeks after treatment
[10] = Rate 0.0620 kg/ha, rated 3-4 weeks after treatment
[11] = Rate 0.1250 kg/ha, rated 3-4 weeks after treatment
[12] = Rate 0.2500 kg/ha, rated 3-4 weeks after treatment
[13] = Rate 0.5000 kg/ha, rated 3-4 weeks after treatment
Further: meaning of each grade not given here.

Cn1c(C(F)(F)F)cc(=O)n(-c2ccc3snc(C(C#N)(Cc4ccccc4)Cc4ccccc4)c3c2)c1=O [Example 582, 1,2-Benzisothiazole-3-acetonitrile, alpha,alpha-dibenzyl-5-[3,6-dihydro-3-methyl-2,6-dioxo-4-(trifluoromethyl)-1(2H)-pyrimidinyl]-]
herbicidal effect rating, CYPIR (Cyperus iria; [5]): 3.0 | herbicidal effect rating, CYPIR (Cyperus iria; [6]): 4.0 | herbicidal effect rating, CYPIR (Cyperus iria; [7]): 6.0 | herbicidal effect rating, CYPIR (Cyperus iria; [8]): 6.0 | herbicidal effect rating, MOOVA [1, 5]: 7.0 | herbicidal effect rating, MOOVA [1, 6]: 7.0 | herbicidal effect rating, MOOVA [1, 7]: 7.0 | herbicidal effect rating, MOOVA [1, 8]: 7.0 | herbicidal effect rating ORYSAT [2, 5]: 0.0 | herbicidal effect rating ORYSAT [2, 6]: 0.0 | herbicidal effect rating ORYSAT [2, 7]: 0.0 | herbicidal effect rating ORYSAT [2, 8]: 3.0 | herbicidal effect rating, SAGPY (Sagittaria pygmaea, L.; [5]): 5.0 | herbicidal effect rating, SAGPY (Sagittaria pygmaea, L.; [6]): 5.0 | herbicidal effect rating, SAGPY (Sagittaria pygmaea, L.; [7]): 6.0 | herbicidal effect rating, SAGPY (Sagittaria pygmaea, L.; [8]): 6.0 | herbicidal effect rating, CYPSE [3, 5]: 0.0 | herbicidal effect rating, CYPSE [3, 6]: 0.0 | herbicidal effect rating, CYPSE [3, 7]: 0.0 | herbicidal effect rating, CYPSE [3, 8]: 7.0 | herbicidal effect rating, ECHORC [4, 5]: 6.0 | herbicidal effect rating, ECHORC [4, 6]: 7.0 | herbicidal effect rating, ECHORC [4, 7]: 7.0 | herbicidal effect rating, ECHORC [4, 8]: 9.0

CCCS(=O)(=O)NC(=O)COc1ccc(C)cc1-c1nsc2ccc(-n3c(=O)cc(C(F)(F)F)n(C)c3=O)cc12 [Example 552, Acetamide, 2-{{2-{5-[3,6-dihydro-3-methyl-2,6-dioxo-4-(trifluoromethyl)-1(2H)-pyrimidinyl]-1,2-benzisothiazol-3-yl}-p-tolyl}oxy}-N-(propylsulfonyl)-]
herbicidal effect rating, CYPIR (Cyperus iria; [9]): 6.0 | herbicidal effect rating, CYPIR (Cyperus iria; [10]): 8.0 | herbicidal effect rating, CYPIR (Cyperus iria; [11]): 7.0 | herbicidal effect rating, CYPIR (Cyperus iria; [12]): 9.0 | herbicidal effect rating, CYPIR (Cyperus iria; [13]): 9.0 | herbicidal effect rating, MOOVA [1, 9]: 6.0 | herbicidal effect rating, MOOVA [1, 10]: 8.0 | herbicidal effect rating, MOOVA [1, 11]: 9.0 | herbicidal effect rating, MOOVA [1, 12]: 9.0 | herbicidal effect rating, MOOVA [1, 13]: 9.0 | herbicidal effect rating ORYSAT [2, 9]: 4.0 | herbicidal effect rating ORYSAT [2, 10]: 6.0 | herbicidal effect rating ORYSAT [2, 11]: 6.0 | herbicidal effect rating ORYSAT [2, 12]: 7.0 | herbicidal effect rating ORYSAT [2, 13]: 4.0 | herbicidal effect rating, SAGPY (Sagittaria pygmaea, L.; [9]): 0.0 | herbicidal effect rating, SAGPY (Sagittaria pygmaea, L.; [10]): 0.0 | herbicidal effect rating, SAGPY (Sagittaria pygmaea, L.; [11]): 0.0 | herbicidal effect rating, SAGPY (Sagittaria pygmaea, L.; [12]): 0.0 | herbicidal effect rating, SAGPY (Sagittaria pygmaea, L.; [13]): 5.0 | herbicidal effect rating, CYPSE [3, 9]: 0.0 | herbicidal effect rating, CYPSE [3, 11]: 4.0 | herbicidal effect rating, CYPSE [3, 12]: 9.0 | herbicidal effect rating, CYPSE [3, 13]: 9.0 | herbicidal effect rating, ECHORC [4, 9]: 2.6 | herbicidal effect rating, ECHORC [4, 10]: 3.7 | herbicidal effect rating, ECHORC [4, 11]: 4.7 | herbicidal effect rating, ECHORC [4, 12]: 9.0 | herbicidal effect rating, ECHORC [4, 13]: 9.0

Reference: patent publication EP0908457B1, “3-(1,2-benzisothiazol- and isoxazol-5-Y1)-2,4(1H,3H)-pyrimidinedione or thione and 3-(1,2-benzisothiazol- and isoxazol-5-y1)-4(3H)-pyrimidinone or thione herbicidal agents” (BASF AKTIENGESELLSCHAFT, priority 1997, dated 1999)
